The record followed here is patent US8399681B2, “Substituted aminothiazolone indazoles as estrogen related receptor-alpha modulators” (Janssen Pharmaceutica NV, priority 2009, dated 2013).

This experiment has as its target T1, ERR1 (also known as ERR-α or ERR-1) (Homo sapiens, UniProt P11474).
T1 sequence (P11474 193-421 limits assumed): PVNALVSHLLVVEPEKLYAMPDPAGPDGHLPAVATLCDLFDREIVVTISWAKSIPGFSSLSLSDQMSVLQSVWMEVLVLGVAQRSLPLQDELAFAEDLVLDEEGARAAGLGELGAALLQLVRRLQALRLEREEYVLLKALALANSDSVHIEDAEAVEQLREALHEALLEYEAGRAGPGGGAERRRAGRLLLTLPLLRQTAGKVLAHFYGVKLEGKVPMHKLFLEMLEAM
The experiment in a line: TR-FRET assay (disruption of co-activator peptide binding). It is filed as biochemical. The settings on record: 6His-tagged ERR1 LBD, GST-hSRC2 co-activator polypeptide; average of 3 independent experiments. Here is the method: Time-Resolved Fluorescence Resonance Energy Transfer (TR-FRET) experiments were performed to examine the functional response of ERR1 (also known as ERR-α or ERR-1) ligands. The TR-FRET assay described herein relied on the conformation of ERR1 for binding to a co-activator peptide: when a test compound binds to ERR1 and alters its conformation, it can disrupt the binding of the co-activator peptide. The components of this homogeneous secondary assay included: the ^6His-tagged-ERR1LBD, a GST-labeled-hSRC2 co-activator polypeptide and a fluorescent donor/acceptor pair from CIS bio international htrf/bioassays (Bedford, Mass.) using both an α-GST Europium Cryptate (Eu) label and an α^6His-XL665 (allophycocyanin) fluorophore.
For TR-FRET measurements, the reaction was buffered in 25 mM Tris pH 8, 2.5 mM Hepes, 20 mM KCl, 1 mM DTT, and 0.05 mg/mL BSA (-lipids). The final concentrations of reagents were 6 nM of ERR1LBD, 6 nM GST-SRC-2 peptide, 30 nM Eu cryptate, and 7.5 nM XL665. Reactions were allowed to reach equilibrium at 25° C. for 4-18 hours before collecting data on the Analyst from LJL Biosystems (Molecular Devices Sunnyvale, Calif.). As a time-resolved method, the samples were excited at […] and emission was collected for 1 ms at both 615 and 665 nm with delays of 400 and 75 μs, respectively. Dose response curves were fitted using a hyperbolic equation and the data reported is the average of 3 independent experiments.
On the technique in general: In TR-FRET formats the signal depends on donor and acceptor labels being close together.

Broadly, the EC50 is the concentration that produces a half-maximal response. A higher EC50 goes with weaker potency.

Molecule `O=C1N=C(N2CCC[C@H]2C(=O)O)S/C1=C\c1ccc2c(cnn2Cc2ccc(Cl)cc2C(F)(F)F)c1` [Example 44, 1-{5-[1-(4-Chloro-2-trifluoromethyl-benzyl)-1H-indazol-5-ylmethylene]-4-oxo-4,5-dihydro-thiazol-2-yl}-pyrrolidine-2-(S)-carboxylic acid] displayed an EC50 of 3.2 nM. With `COc1ccc(Cn2ncc3cc(/C=C4\SC(N5CCC[C@@H]5C(=O)O)=NC4=O)ccc32)c(C(F)(F)F)c1` [Example 45, 1-{5-[1-(4-M ethoxy-2-trifluoromethyl-benzyl)-1H-indazol-5-ylmethylene]-4-oxo-4,5-dihydro-thiazol-2-yl}-pyrrolidine-2-(R)-carboxylic acid], the EC50 was found to be 34 nM. Compared with the last molecule, the EC50 is about 11-fold higher. In turn, `O=C1N=C(N2CCC[C@@H]2C(=O)O)S/C1=C\c1ccc2c(cnn2Cc2ccc(Cl)cc2C(F)(F)F)c1` [Example 46, 1-{5-[1-(4-Chloro-2-trifluoromethyl-benzyl)-1H-indazol-5-ylmethylene]-4-oxo-4,5-dihydro-thiazol-2-yl}-pyrrolidine-2-(R)-carboxylic acid] gave a 50% effective concentration (EC50) of 27 nM. In the case of `O=C1N=C(N2CCNC[C@@H]2C(=O)O)S/C1=C\c1ccc2c(cnn2Cc2ccc(C(F)(F)F)cc2C(F)(F)F)c1` [Example 47, 1-{5-[1-(2,4-Bis-trifluoromethyl-benzyl)-1H-indazol-5-ylmethylene]-4-oxo-4,5-dihydro-thiazol-2-yl}piperazine-2-(R)-carboxylic acid], the midpoint of the response, the EC50, lay at 8.2 nM. As for `O=C1N=C(N2CCC[C@H](C(=O)O)C2)S/C1=C\c1ccc2c(cnn2Cc2ccc(Cl)cc2C(F)(F)F)c1` [Example 48, 1-{5-[1-(4-Chloro-2-trifluoromethyl-benzyl)-1H-indazol-5-ylmethylene]-4-oxo-4,5-dihydro-thiazol-2-yl}piperidine-3-(S)-carboxylic acid], the 50% effective concentration (EC50) was found to be 14.3 nM. This EC50 is about 1.7-fold higher than that of the molecule before. To `O=C1N=C(N2CC[C@H]2C(=O)O)S/C1=C\c1ccc2c(cnn2Cc2ccc(C(F)(F)F)cc2C(F)(F)F)c1` [Example 49, 1-{5-[1-(2,4-Bis-trifluoromethyl-benzyl)-1H-indazol-5-ylmethylene]-4-oxo-4,5-dihydro-thiazol-2-yl}-azetidine-2-(S)-carboxylic acid] belongs 6 nM; to `COc1ccc(Cn2ncc3cc(/C=C4\SC(N5CC[C@H]5C(=O)O)=NC4=O)ccc32)c(C(F)(F)F)c1` [Example 50, 1-{5-[1-(4-Methoxy-2-trifluoromethyl-benzyl)-1H-indazol-5-ylmethylene]-4-oxo-4,5-dihydro-thiazol-2-yl}-azetidine-2-(S)-carboxylic acid], 7.8 nM; to `COc1ccc(Cn2ncc3cc(/C=C4\SC(N5CCC[C@H](N)C5)=NC4=O)ccc32)c(C(F)(F)F)c1` [Example 51, 2-(3-(S)-Amino-piperidin-1-yl)-5-[1-(4-methoxy-2-trifluoromethyl-benzyl)-1H-indazol-5-ylmethylene]-thiazol-4-one], 9 nM.

`N[C@@H]1CCCN(C2=NC(=O)/C(=C/c3ccc4c(cnn4Cc4ccc(C(F)(F)F)cc4C(F)(F)F)c3)S2)C1` [Example 53, 2-(3-(R)-Amino-piperidin-1-yl)-5-[1-(2,4-bis-trifluoromethyl-benzyl)-1H-indazol-5-ylmethylene]-thiazol-4-one] came in with an EC50 of 13 nM. This EC50 and that of the molecule before are within 1.5-fold of each other. The molecule `O=C1N=C(N2CCCNCC2)S/C1=C\c1ccc2c(cnn2Cc2ccc(C(F)(F)F)cc2C(F)(F)F)c1` [Example 55, 5-[1-(2,4-Bis-trifluoromethyl-benzyl)-1H-indazol-5-ylmethylene]-2-[1,4]diazepan-1-yl-thiazol-4-one] registered an EC50 of 61 nM. Consider `NC1CCN(C2=NC(=O)/C(=C/c3ccc4c(cnn4Cc4ccc(Cl)cc4C(F)(F)F)c3)S2)CC1` [Example 57, 2-(4-Amino-piperidin-1-yl)-5-[1-(4-chloro-2-trifluoromethyl-benzyl)-1H-indazol-5-ylmethylene]-thiazol-4-one], for which the EC50 was found to be 12.1 nM. The result for `O=C1N=C(N2CCN(CC(F)(F)F)CC2)S/C1=C\c1ccc2c(cnn2Cc2ccc(Cl)cc2C(F)(F)F)c1` [Example 58, 5-[1-(4-Chloro-2-trifluoromethyl-benzyl)-1H-indazol-5-ylmethylene]-2-[4-(2,2,2-trifluoro-ethyl)-piperazin-1-yl]-thiazol-4-one] reads 42 nM. On to `N[C@@H]1CCCN(C2=NC(=O)/C(=C/c3ccc4c(cnn4Cc4ccc(Cl)cc4C(F)(F)F)c3)S2)C1` [Example 59, 2-(3-(R)-Amino-piperidin-1-yl)-5-[1-(4-chloro-2-trifluoromethyl-benzyl)-1H-indazol-5-ylmethylene]-thiazol-4-one], for which a half-maximal effect (EC50) was put at 23 nM.

In the case of `N[C@H]1CCCN(C2=NC(=O)/C(=C/c3ccc4c(cnn4Cc4ccc(Cl)cc4C(F)(F)F)c3)S2)C1` [Example 60, 2-(3-(S)-Amino-piperidin-1-yl)-5-[1-(4-chloro-2-trifluoromethyl-benzyl)-1H-indazol-5-ylmethylene]-thiazol-4-one], the EC50 was determined as 19.7 nM. To `O=C1N=C(N2CCN(CC(F)F)CC2)S/C1=C\c1ccc2c(cnn2Cc2ccc(Cl)cc2C(F)(F)F)c1` [Example 61, 5-[1-(4-Chloro-2-trifluoromethyl-benzyl)-1H-indazol-5-ylmethylene]-2-[4-(2,2-difluoro-ethyl)-piperazin-1-yl]-thiazol-4-one] belongs 19.6 nM; to `CCN1CCN(C2=NC(=O)/C(=C/c3ccc4c(cnn4Cc4ccc(Cl)cc4C(F)(F)F)c3)S2)CC1` [Example 63, 5-[1-(4-Chloro-2-trifluoromethyl-benzyl)-1H-indazol-5-ylmethylene]-2-(4-ethyl-piperazin-1-yl)-thiazol-4-one], 54 nM. The result for `C[C@H]1CN(C2=NC(=O)/C(=C/c3ccc4c(cnn4Cc4ccc(Cl)cc4C(F)(F)F)c3)S2)[C@@H](C)CN1` [Example 65, 5-[1-(4-Chloro-2-trifluoromethyl-benzyl)-1H-indazol-5-ylmethylene]-2-(2-(S),5-(S)-dimethyl-piperazin-1-yl)-thiazol-4-one] reads 17 nM. Turning to `COCCN1CCN(C2=NC(=O)/C(=C/c3ccc4c(cnn4Cc4ccc(C(F)(F)F)cc4C(F)(F)F)c3)S2)CC1` [Example 66, 5-[1-(2,4-Bis-trifluoromethyl-benzyl)-1H-indazol-5-ylmethylene]-2-[4-(2-methoxy-ethyl)-piperazin-1-yl]-thiazol-4-one], the half-maximal effective concentration (EC50) came to 24.9 nM. This EC50 and that of the molecule before are within 1.5-fold of each other. The result for `CCN1CCN(C2=NC(=O)/C(=C/c3ccc4c(cnn4Cc4ccc(C(F)(F)F)cc4C(F)(F)F)c3)S2)CC1` [Example 67, 5-[1-(2,4-Bis-trifluoromethyl-benzyl)-1H-indazol-5-ylmethylene]-2-(4-ethyl-piperazin-1-yl)-thiazol-4-one] reads 21 nM; that for `O=C1N=C(N2CC(O)C2)S/C1=C\c1ccc2c(cnn2Cc2ccc(Cl)cc2C(F)(F)F)c1` [Example 68, 5-[1-(4-Chloro-2-trifluoromethyl-benzyl)-1H-indazol-5-ylmethylene]-2-(3-hydroxy-azetidin-1-yl)-thiazol-4-one], 9.6 nM. Consider `O=C1N=C(N2C[C@@H]3C[C@H]2CN3)S/C1=C\c1ccc2c(cnn2Cc2ccc(C(F)(F)F)cc2C(F)(F)F)c1` [Example 69, 5-[1-(2,4-Bis-trifluoromethyl-benzyl)-1H-indazol-5-ylmethylene]-2-(2S,5S-diaza-bicyclo[2.2.1]hept-2-yl)-thiazol-4-one], for which the midpoint of the response, the EC50, lay at 26 nM.

As for `CN1C[C@@H]2C[C@H]1CN2C1=NC(=O)/C(=C/c2ccc3c(cnn3Cc3ccc(C(F)(F)F)cc3C(F)(F)F)c2)S1` [Example 70, 5-[1-(2,4-Bis-trifluoromethyl-benzyl)-1H-indazol-5-ylmethylene]-2-(5-methyl-2S,5S-diaza-bicyclo[2.2.1]hept-2-yl)-thiazol-4-one], the EC50 was determined as 11 nM. This EC50 is about 2.4-fold lower than that of the molecule before. `CCOCCN1CCN(C2=NC(=O)/C(=C/c3ccc4c(cnn4Cc4ccc(C(F)(F)F)cc4C(F)(F)F)c3)S2)CC1` [Example 73, 5-[1-(2,4-Bis-trifluoromethyl-benzyl)-1H-indazol-5-ylmethylene]-2-[4-(2-ethoxy-ethyl)-piperazin-1-yl]-thiazol-4-one] registered an EC50 of 172 nM. The result for `CC1(C(=O)O)CCN(C2=NC(=O)/C(=C/c3ccc4c(cnn4Cc4ccc(C(F)(F)F)cc4C(F)(F)F)c3)S2)CC1` [Example 74, 1-{5-[1-(2,4-Bis-trifluoromethyl-benzyl)-1H-indazol-5-ylmethylene]-4-oxo-4,5-dihydro-thiazol-2-yl}-4-methyl-piperidine-4-carboxylic acid] reads 56.2 nM; that for `CC1(C(=O)O)CCN(C2=NC(=O)/C(=C/c3ccc4c(cnn4Cc4ccc(Cl)cc4C(F)(F)F)c3)S2)CC1` [Example 75, 1-{5-[1-(4-Chloro-2-trifluoromethyl-benzyl)-1H-indazol-5-ylmethylene]-4-oxo-4,5-dihydro-thiazol-2-yl}-4-methyl-piperidine-4-carboxylic acid], 73.4 nM.
